These results are taken from US8747846B2, “Compositions and methods for immunization against drug resistant Acinetobacter baumannii” (priority 2011, dated 2014).

Format in all cases: cell-based, Acinetobacter baumannii
One assay has as its system A. baumannii HUMC1. The assay is described as follows: microbe, parasite or virus in culture. The settings on record: for MIC: Acinetobacter baumannii.
Another assay has as its system A. baumannii HUMC4. The assay is described as follows: microbe, parasite or virus in culture. The settings on record: for MIC: Acinetobacter baumannii.
Another assay relates to A. baumannii HUMC12. The assay can be described thus: microbe, parasite or virus in culture. The settings on record: for MIC: Acinetobacter baumannii.
The subject of a further assay is A. baumannii ATCC 17978. The assay can be described thus: Antibacterial minimum inhibitory concentrations for clinical isolates. The following applies: strain ATCC 17978; for MIC: Acinetobacter baumannii, ATCC17978.
The subject of the next assay is A. baumannii HUMC6. The assay can be described thus: microbe, parasite or virus in culture. The settings on record: for MIC: Acinetobacter baumannii.
A further assay deals with A. baumannii HUMC5. The assay is described as follows: microbe, parasite or virus in culture. The settings on record: for MIC: Acinetobacter baumannii.
Setting [1] is: HUMC1, read-out: Antibacterial Minimum Inhibitory Concentrations.
Setting [2] is: strain HUMC4, read-out: Antibacterial Minimum Inhibitory Concentrations.
Where [3] appears, read: strain HUMC12, read-out: Antibacterial Minimum Inhibitory Concentrations.
The mark [4] stands for this setting: strain HUMC6, read-out: Antibacterial Minimum Inhibitory Concentrations.
Where [5] appears, read: strain HUMC5, read-out: Antibacterial Minimum Inhibitory Concentrations.
[6] abbreviates: strain HUMC1, read-out: Antibacterial Minimum Inhibitory Concentrations.

Converted amounts (≈) assume the structure as drawn. Like-named read-outs stand apart in the source and are kept apart here.

In the case of `NCC[C@H](O)C(=O)N[C@@H]1C[C@H](N)[C@@H](O[C@H]2O[C@H](CN)[C@@H](O)[C@H](O)[C@H]2O)[C@H](O)[C@H]1O[C@H]1O[C@H](CO)[C@@H](O)[C@H](N)[C@H]1O` [Amikacin], the MIC in the assay with A. baumannii HUMC1 (setting [1]) is > 128 µg/mL; in the assay on A. baumannii HUMC4 (setting [2]) it was > 128 µg/mL; in the assay on A. baumannii HUMC12 (setting [3]), > 128 µg/mL; against A. baumannii ATCC 17978, 8 µg/mL (≈ 13.7 µM); in the assay with A. baumannii HUMC6 (setting [4]) it was > 128 µg/mL; in the assay on A. baumannii HUMC5 (setting [5]), > 128 µg/mL.

On to `C[C@@H](O)[C@H]1C(=O)N2C(C(=O)O)=C(S[C@@H]3CN[C@H](CNS(N)(=O)=O)C3)[C@H](C)[C@H]12` [Doripenem], for which the MIC with A. baumannii HUMC1 (setting [6]) was determined as 16 µg/mL (≈ 38 µM); in the assay on A. baumannii HUMC4 (setting [2]), 4 µg/mL (≈ 9.51 µM); with A. baumannii HUMC12 (setting [3]) it was 8 µg/mL (≈ 19 µM); in the assay with A. baumannii ATCC 17978 it was 0.5 µg/mL (≈ 1.19 µM); with A. baumannii HUMC6 (setting [4]), 4 µg/mL (≈ 9.51 µM); in the assay with A. baumannii HUMC5 (setting [5]), 8 µg/mL (≈ 19 µM).

On to `C[C@@H](O)[C@H]1C(=O)N2C(C(=O)O)=C(S[C@@H]3CN[C@H](C(=O)Nc4cccc(C(=O)O)c4)C3)[C@H](C)[C@H]12` [Ertapenem], for which the MIC was 128 µg/mL (≈ 269 µM) with A. baumannii HUMC1 (setting [6]); 32 µg/mL (≈ 67.3 µM) in the assay with A. baumannii HUMC4 (setting [2]); 16 µg/mL (≈ 33.6 µM) in the assay with A. baumannii HUMC12 (setting [3]); 4 µg/mL (≈ 8.41 µM) with A. baumannii ATCC 17978; 32 µg/mL (≈ 67.3 µM) in the assay on A. baumannii HUMC6 (setting [4]); 32 µg/mL (≈ 67.3 µM) in the assay with A. baumannii HUMC5 (setting [5]).

With `C[C@@H](O)[C@H]1C(=O)N2C(C(=O)O)=C(SCCN=CN)C[C@H]12` [Imipenem], the MIC came to 16 µg/mL (≈ 53.4 µM) with A. baumannii HUMC1 (setting [6]); 4 µg/mL (≈ 13.4 µM) in the assay with A. baumannii HUMC4 (setting [2]); 2 µg/mL (≈ 6.68 µM) with A. baumannii HUMC12 (setting [3]); 0.25 µg/mL (≈ 0.835 µM) against A. baumannii ATCC 17978; 4 µg/mL (≈ 13.4 µM) in the assay with A. baumannii HUMC6 (setting [4]); 4 µg/mL (≈ 13.4 µM) in the assay on A. baumannii HUMC5 (setting [5]).

Take `C[C@@H](O)[C@H]1C(=O)N2C(C(=O)O)=C(S[C@@H]3CN[C@H](C(=O)N(C)C)C3)[C@H](C)[C@H]12` [Meropenem]: the MIC in the assay with A. baumannii HUMC1 (setting [1]) stood at 32 µg/mL (≈ 83.4 µM); in the assay on A. baumannii HUMC4 (setting [2]), 8 µg/mL (≈ 20.9 µM); in the assay with A. baumannii HUMC12 (setting [3]), 4 µg/mL (≈ 10.4 µM); in the assay on A. baumannii ATCC 17978, 0.25 µg/mL (≈ 0.652 µM); in the assay on A. baumannii HUMC6 (setting [4]) it was 8 µg/mL (≈ 20.9 µM); with A. baumannii HUMC5 (setting [5]) it was 8 µg/mL (≈ 20.9 µM).

Take `CN(C)c1cc(NC(=O)CNC(C)(C)C)c(O)c2c1C[C@H]1C[C@H]3[C@H](N(C)C)C(O)=C(C(N)=O)C(=O)[C@@]3(O)C(O)=C1C2=O` [Tigecycline]: the MIC is 4 µg/mL (≈ 6.83 µM) with A. baumannii HUMC1 (setting [1]); 4 µg/mL (≈ 6.83 µM) with A. baumannii HUMC4 (HUMC4, read-out: Antibacterial Minimum Inhibitory Concentrations); 4 µg/mL (≈ 6.83 µM) with A. baumannii HUMC12 (HUMC12, read-out: Antibacterial Minimum Inhibitory Concentrations); 0.25 µg/mL (≈ 0.427 µM) in the assay with A. baumannii ATCC 17978; 4 µg/mL (≈ 6.83 µM) in the assay with A. baumannii HUMC6 (HUMC6, read-out: Antibacterial Minimum Inhibitory Concentrations); 4 µg/mL (≈ 6.83 µM) with A. baumannii HUMC5 (HUMC5, read-out: Antibacterial Minimum Inhibitory Concentrations).

Consider Ampicillin/sulbactam, for which the “Antibacterial Minimum Inhibitory Concentrations” value is listed as 16/8 in the assay on A. baumannii HUMC1 (strain HUMC1); 32/16 in the assay on A. baumannii HUMC4 (strain HUMC4); 32/16 in the assay with A. baumannii HUMC12 (strain HUMC12); 32/16 in the assay with A. baumannii HUMC6 (strain HUMC6); 32/16 in the assay on A. baumannii HUMC5 (strain HUMC5).

For the compound Colistin, the “Antibacterial Minimum Inhibitory Concentrations” value in the assay on A. baumannii HUMC1 (strain HUMC1), with A. baumannii HUMC4 (strain HUMC4), in the assay on A. baumannii HUMC12 (strain HUMC12), in the assay on A. baumannii ATCC 17978, in the assay on A. baumannii HUMC6 (strain HUMC6) and with A. baumannii HUMC5 (strain HUMC5) was 2 µg/mL in each case.

Gentamicin: the “Antibacterial Minimum Inhibitory Concentrations” value with A. baumannii HUMC1 (strain HUMC1) is >128 µg/mL; in the assay with A. baumannii HUMC4 (strain HUMC4) it was >128 µg/mL; in the assay with A. baumannii HUMC12 (strain HUMC12), >128 µg/mL; with A. baumannii ATCC 17978, 8 µg/mL; in the assay with A. baumannii HUMC6 (strain HUMC6), >128 µg/mL; in the assay with A. baumannii HUMC5 (strain HUMC5), >128 µg/mL.

Turning to Pipercillin/tazobactam, the “Antibacterial Minimum Inhibitory Concentrations” value in the assay with A. baumannii HUMC1 (strain HUMC1), in the assay on A. baumannii HUMC4 (strain HUMC4), in the assay with A. baumannii HUMC12 (strain HUMC12), in the assay with A. baumannii HUMC6 (strain HUMC6) and in the assay with A. baumannii HUMC5 (strain HUMC5) was <128/4 throughout.
